≈ marks a conversion by molar mass, not a printed value. Like-named read-outs stand apart in the source and are kept apart here.
How the values were obtained:
C. albicans ATCC 24433 = assay: Antifungal susceptibility, broth dilution MIC (CLSI M27-A2); format: cell-based; conditions: Candida albicans, read-out: Activity against organisms (MIC50) Ca01
Method: (§1) The compounds of Formula 1 were tested for antifungal activity against Candida albicans, C. glabrata, C. krusei, C. tropicalis, Cryptococcus neoformans, Aspergillus fumigatus, A. niger and Fusarium proliferatum. In vitro evaluation of antifungal activity was performed by determining the minimum inhibitory concentration (MIC) following standard methods (CLSI: Reference method for broth dilution antifungal susceptibility testing of yeasts; Approved standard, second edition M27-A2, 2002; CLSI: Reference method for broth dilution antifungal susceptibility testing of filamentous fungi; Approved standard M38-A, 2002). Anti-fungal susceptibility testing of these anti-fungal compounds was done by broth dilution method using RPMI 1640 medium with MOPS buffer. Known anti-fungal agent fluconazole was used as positive control. End points were determined after 48 hours visually and by using spectrophotometer wherever necessary. Different dilutions were tried and various sets of experiments performed. The activity parameters are enumerated in Table 4.

C. glabrata ATCC 90030 = assay: as above; format: cell-based, Candida glabrata; conditions: Nakaseomyces glabratus, read-out: Activity against organisms (MIC50) Cg01
Method: as §1

C. krusei ATCC 6258 = assay: as above; format: cell-based, Candida krusei; conditions: Pichia kudriavzevii, read-out: Activity against organisms (MIC50) Ck01
Method: as §1

C. tropicalis ATCC 750 = assay: as above; format: cell-based, Candida tropicalis; conditions: for MIC50: Candida tropicalis, read-out: Activity against organisms (MIC50) Ct01
Method: as §1

C. neoformans ATCC 34664 = assay: as above; format: cell-based, Cryptococcus neoformans; conditions: for MIC50: Cryptococcus neoformans, read-out: Activity against organisms (MIC50) Cn01
Method: as §1

A. fumigatus ATCC 46645 = assay: Antifungal susceptibility, broth dilution MIC (CLSI M38-A); format: cell-based; conditions: Aspergillus fumigatus, read-out: Activity against organisms (MIC50) Afm01
Method: as §1

A. niger ATCC 16404 = assay: as above; format: cell-based; conditions: Aspergillus niger, read-out: Activity against organisms (MIC50) An01
Method: as §1

[1] = test system: F. proliferatum ATCC 10052; assay: as above; format: cell-based; conditions: Fusarium proliferatum, read-out: Activity against organisms (MIC50) Fp01
Method: as §1

[2] = ATCC24433, C. albicans ATCC 24433, broth dilution, RPMI 1640 with MOPS, 48 hours
[3] = ATCC90030, C. glabrata ATCC 90030, broth dilution, RPMI 1640 with MOPS, 48 hours
[4] = ATCC6258, C. krusei ATCC 6258, broth dilution, RPMI 1640 with MOPS, 48 hours
[5] = ATCC750, C. tropicalis ATCC 750, broth dilution, RPMI 1640 with MOPS, 48 hours
[6] = ATCC34664, C. neoformans ATCC 34664, broth dilution, RPMI 1640 with MOPS, 48 hours
[7] = ATCC46645, A. fumigatus ATCC 46645, broth dilution, RPMI 1640 with MOPS, 48 hours
[8] = ATCC16404, A. niger ATCC 16404, broth dilution, RPMI 1640 with MOPS, 48 hours
[9] = ATCC10052, F. proliferatum ATCC 10052, broth dilution, RPMI 1640 with MOPS, 48 hours

| Compound | MIC50 (C. albicans ATCC 24433; [2]) | MIC50 (C. glabrata ATCC 90030; [3]) | MIC50 (C. krusei ATCC 6258; [4]) | MIC50 (C. tropicalis ATCC 750; [5]) | MIC50 (C. neoformans ATCC 34664; [6]) | MIC50 (A. fumigatus ATCC 46645; [7]) | MIC50 (A. niger ATCC 16404; [8]) | MIC50 [1, 9] | MIC50 (C. albicans ATCC 24433; ATCC24433, 48 h) | MIC50 (C. glabrata ATCC 90030; ATCC90030, 48 h) | MIC50 (C. krusei ATCC 6258; ATCC6258, 48 h) | MIC50 (C. tropicalis ATCC 750; ATCC750, 48 h) | MIC50 (C. neoformans ATCC 34664; ATCC34664, 48 h) | MIC50 (A. fumigatus ATCC 46645; ATCC46645, 48 h) | MIC50 (A. niger ATCC 16404; ATCC16404, 48 h) | MIC50 ([1]; ATCC10052, 48 h) | antifungal activity against Candida tropicalis (in words) (C. tropicalis ATCC 750; summary statement) | antifungal activity against Cryptococcus neoformans (in words) (C. neoformans ATCC 34664; summary statement) |
| --- | --- | --- | --- | --- | --- | --- | --- | --- | --- | --- | --- | --- | --- | --- | --- | --- | --- | --- |
| O=C(/C=C/c1ccc(Cl)cc1)c1ccc(O)cc1 [Compound 9A-4] | – | – | – | – | – | – | – | – | > 8 µg/mL | 32 µg/mL (≈ 124 µM) | > 8 µg/mL | > 8 µg/mL | > 8 µg/mL | > 8 µg/mL | > 8 µg/mL | > 8 µg/mL | – | – |
| O=C(/C=C/c1ccc(O)cc1)c1ccc(O)cc1 [Compound 9A-5] | 32 µg/mL (≈ 133 µM) | 16 µg/mL (≈ 66.6 µM) | > 32 µg/mL | > 32 µg/mL | 32 µg/mL (≈ 133 µM) | 16 µg/mL (≈ 66.6 µM) | 8 µg/mL (≈ 33.3 µM) | > 32 µg/mL | – | – | – | – | – | – | – | – | – | – |
| CCCN1CCN(c2ccc(C(C)=O)cc2)CC1 [Compound 11A-1] | > 128 µg/mL | > 128 µg/mL | > 128 µg/mL | > 128 µg/mL | > 128 µg/mL | > 128 µg/mL | > 128 µg/mL | > 128 µg/mL | – | – | – | – | – | – | – | – | – | – |
| CCCCN1CCN(c2ccc(C(C)=O)cc2)CC1 [Compound 11A-2] | > 64 µg/mL | > 64 µg/mL | > 64 µg/mL | > 64 µg/mL | > 64 µg/mL | > 64 µg/mL | > 64 µg/mL | > 64 µg/mL | – | – | – | – | – | – | – | – | – | – |

Second part, led by results:

| MIC50 (C. albicans ATCC 24433; [2]) | MIC50 (C. glabrata ATCC 90030; [3]) | MIC50 (C. krusei ATCC 6258; [4]) | MIC50 (C. tropicalis ATCC 750; [5]) | MIC50 (C. neoformans ATCC 34664; [6]) | MIC50 (A. fumigatus ATCC 46645; [7]) | MIC50 (A. niger ATCC 16404; [8]) | MIC50 [1, 9] | Compound | MIC50 (C. albicans ATCC 24433; ATCC24433, 48 h) | MIC50 (C. glabrata ATCC 90030; ATCC90030, 48 h) | MIC50 (C. krusei ATCC 6258; ATCC6258, 48 h) | MIC50 (C. tropicalis ATCC 750; ATCC750, 48 h) | MIC50 (C. neoformans ATCC 34664; ATCC34664, 48 h) | MIC50 (A. fumigatus ATCC 46645; ATCC46645, 48 h) | MIC50 (A. niger ATCC 16404; ATCC16404, 48 h) | MIC50 ([1]; ATCC10052, 48 h) | antifungal activity against Candida tropicalis (in words) (C. tropicalis ATCC 750; summary statement) | antifungal activity against Cryptococcus neoformans (in words) (C. neoformans ATCC 34664; summary statement) |
| --- | --- | --- | --- | --- | --- | --- | --- | --- | --- | --- | --- | --- | --- | --- | --- | --- | --- | --- |
| > 32 µg/mL | > 32 µg/mL | > 32 µg/mL | > 32 µg/mL | > 32 µg/mL | > 32 µg/mL | > 32 µg/mL | > 32 µg/mL | O=C(/C=C/c1cccs1)c1ccc(O)cc1 [Compound 10A-1] | – | – | – | – | – | – | – | – | – | – |
| > 8 µg/mL | > 8 µg/mL | > 8 µg/mL | > 8 µg/mL | > 8 µg/mL | > 8 µg/mL | > 8 µg/mL | > 8 µg/mL | COc1ccc(C(=O)/C=C/c2cccs2)cc1 [Compound 10A-2] | – | – | – | – | – | – | – | – | – | – |
| 0.25 µg/mL (≈ 0.816 µM) | 1 µg/mL (≈ 3.27 µM) | 32 µg/mL (≈ 104 µM) | 1 µg/mL (≈ 3.27 µM) | 2 µg/mL (≈ 6.53 µM) | > 128 µg/mL | > 128 µg/mL | > 128 µg/mL | OC(Cn1cncn1)(Cn1cncn1)c1ccc(F)cc1F [Fluconazole, reference compound] | – | – | – | – | – | – | – | – | weaker antifungal activity | weaker antifungal activity |

Reference: US9540350B2, “1-substituted, 4-(substituted phenoxymethyl)-1,2,3-triazole compounds with antifungal properties and methods for preparation thereof” (FDC LIMITED, priority 2013, dated 2017)
